Test results: patent publication US20050192227A1, “Method for reducing the risk of cancer” (priority 1999, published 2005)

What was measured:
[1] = system: MCF-7; conditions: ER+ breast cancer cell line MCF-7, in vitro; cited from earlier work
[2] = Effectiveness of daily doses against osteoporosis in men and women; assay type: in vivo, human; conditions: daily doses of 20 μg and 40 μg compared
[3] = system: biochemical bone markers; assay: Applicant's dose studies in human subjects: changes in biochemical bone markers; assay type: in vivo
Experimental: (§1) Therefore, for reducing risk on cancer in men or women with hPTH(1-34) according to the present invention, preferably one should use a daily dose greater than about 6 μg, more preferably at least about 15 μg. […] Therefore, any daily dose of hPTH(1-34) in the range of greater than about 6 μg to at least about 40 μg would be effective for reduction of the risk of cancer, according to the present method of using this form of parathyroid hormone. […] Accordingly, the present invention provides a method for reducing the risk of cancer in a human subject at risk thereof, comprising administering to the subject a parathyroid hormone. Preferably, the parathyroid hormone consists of amino acid sequence 1-34 of human parathyroid hormone. This hormone may be administered with or without concurrent administration of an antiresorptive agent other than vitamin D or calcium. Preferably, the hormone is administered in a daily dose in the range of about 15 μg to about 40 μg, for at least about 12 months. In this method for reducing the risk of cancer, the hormone may be administered for longer periods of several years (e.g., up to 3 years as in osteoporotic patients), including for the remaining life of a human subject identified as having a high risk of cancer.

[4] = Undesirable side effects of daily doses in human subjects; assay type: in vivo; conditions: daily dose of about 20 μg compared with about 40 μg
Experimental: as §1

[5] = system: detectable tumors; assay: Clinical trial of rhPTH(1-34) in postmenopausal women: incidence of cancer (patients with detectable tumors); assay type: in vivo, human; conditions: for number of patients with detectable tumors, breast carcinoma: 17-23 months, placebo 7; for number of patients with detectable tumors, skin carcinoma: placebo 5; for number of patients with detectable tumors, all cancers except breast carcinoma: placebo 16; for number of patients with detectable tumors, all cancers: placebo 21
Experimental: • Number of Subjects: rhPTH(1-34): 1093 enrolled, 848 finished. • Placebo: 544 enrolled, 447 finished. • Diagnosis and Inclusion Criteria: Women ages 30 to 85 years, postmenopausal for a minimum of 5 years, with a minimum of one moderate or two mild atraumatic vertebral fractures. • Dosage and Administration: Test Product (blinded) • rhPTH(1-34): 20 μg/day, given subcutaneously • rhPTH(1-34): 40 μg/day, given subcutaneously • Reference Therapy (blinded) • Placebo study material for injection • Duration of Treatment: rhPTH(1-34): 17-23 months (excluding 6-month run-in phase) • Placebo: 17-23 months (excluding 6-month run-in phase)
Criteria for Evaluation: Spine x-ray; serum biological markers (calcium, bon-specific alkaline phosphatase, procollagen I carboxy-terminal propeptide); urine markers (calcium, N-telopeptide, free deoxypyridinoline); 1,25-dihydroxyvitanin D; bone mineral density: spine, hip, wrist, and total body; height; population pharmacokinetics; bone biopsy (selected study sites).
Table 1 illustrates data showing the reduction in the number of patients having detectable tumors upon treatment with PTH.

Substance | response of MCF-7 cells to PTHrP [1] | effectiveness against osteoporosis [2] | lowest tested dose found to be biologically active, as indicated by detectable changes in biochemical bone markers [3] | effects on biochemical bone markers ([3]; 6 μg dose) | undesirable side effects [4] | number of patients with detectable tumors, breast carcinoma ([5]; PTH-20 (20 μg/day s.c., N = 541), p=0.017) | number of patients with detectable tumors, skin carcinoma ([5]; PTH-20 (20 μg/day s.c., N = 541), p=0.532) | number of patients with detectable tumors, all cancers except breast carcinoma ([5]; PTH-20 (20 μg/day s.c., N = 541)) | number of patients with detectable tumors, all cancers ([5]; PTH-20 (20 μg/day s.c., N = 541), p=0.03) | number of patients with detectable tumors, breast carcinoma ([5]; PTH-40 (40 μg/day s.c., N = 522), p=0.017) | number of patients with detectable tumors, skin carcinoma ([5]; PTH-40 (40 μg/day s.c., N = 522), p=0.532) | number of patients with detectable tumors, all cancers except breast carcinoma ([5]; PTH-40 (40 μg/day s.c., N = 522)) | number of patients with detectable tumors, all cancers ([5]; PTH-40 (40 μg/day s.c., N = 522), p=0.03) | percentage of patients with any form of detectable cancer ([5]; all PTH-treated patients (20 and 40 μg/day pooled) vs. placebo 3.86%, p=0.03) | percentage of patients with skin carcinoma ([5]; all PTH-treated patients pooled vs. placebo 0.919%, p=0.532) | percentage of patients with breast carcinoma ([5]; all PTH-treated patients pooled vs. placebo 1.29%, p=0.017) | percentage of patients with any form of detectable cancer, excluding breast carcinoma ([5]; all PTH-treated patients pooled vs. placebo 2.94%)
PTHrP: PTH-related peptide/protein | proliferates | – | – | – | – | – | – | – | – | – | – | – | – | – | – | – | –
rhPTH(1-34) | – | similarly effective | about 15 μg | no significant effects | fewer undesirable side effects | 1 | 2 | 7 | 8 | 1 | 4 | 10 | 11 | 1.79% | 0.564% | 0.188% | 1.60%
